From publication PMC5344293, “A phase 1 dose-escalation and expansion study of binimetinib (MEK162), a potent and selective oral MEK1/2 inhibitor” (British Journal of Cancer, 2017)

Key:
pERK = test: Skin punch biopsy pERK immunohistochemistry; type: in vivo, human; conditions: cycle 1 day 15
Protocol: (§1) Skin punch biopsies (with hair follicles, if feasible) were obtained from patients in the dose-escalation phase and colorectal cancer expansion phase cohorts pre-dose at baseline and post dose within 7 days of cycle 1 day 15 for measurement of Ki67 and pERK expression. Ki67 and pERK expression were determined by immunohistochemistry using a Ki67 rabbit monoclonal antibody (clone 30-9; Ventana Medical Systems, Inc., Tucson, AZ, USA) and a pERK rabbit monoclonal antibody (Thr202/Tyr204, clone 20G11; Cell Signaling Technology, Inc., Danvers, MA), respectively, visualised with DAB and counterstained with haematoxylin. Ki67 was expressed as percentage of tumour cells with positive stain; pERK was expressed as an H-score.

[1] = test system: biliary cancer, KRAS- or BRAF-mutant colorectal cancer; test: Kaplan–Meier PFS and OS, expansion phase cohorts; type: in vivo, human
Protocol: All patients who received ⩾1 dose of binimetinib were included in the safety analysis. Patients in the safety analysis who had ⩾1 measurable lesion at baseline and at least 1 post-baseline disease assessment were evaluable for efficacy. Kaplan–Meier estimates of progression-free survival (PFS) and overall survival (OS) were performed for patients in the expansion phase ([Kaplan and Meier, 1958]) using SAS Version 9.2 (SAS Institute Inc., Cary, NC, USA).

pMEK = test: Skin punch biopsy pMEK expression; type: in vivo, human; conditions: pre-dose and post-dose skin punch biopsies
Ki67 = test: Skin punch biopsy Ki67 immunohistochemistry; type: in vivo, human; conditions: cycle 1 day 15
Protocol: as §1

NRAS-mutant melanoma = test system: NRAS-mutant melanoma; set-up: method as in Dummer et al, 2016; conditions: patients with NRAS-mutant melanoma; ref Dummer et al, 2016; cited from earlier work
[2] = Phase 1 dose escalation: DLTs and MTD; type: in vivo
Protocol: This multicentre, open-label, phase 1 study comprised two phases: a dose-escalation phase and an expansion phase. In the dose-escalation phase, a modified 3+3 design was employed to determine the MTD of binimetinib administered orally twice daily (BID) in a 21-day treatment cycles. A single dose of binimetinib was administered on day 1 and then BID continuously beginning on day 2 of cycle 1. A starting dose of 30 mg BID was utilised for the dose-escalation phase. The dose was escalated in cohorts of at least three evaluable patients at 45 mg BID, 60 mg BID, and 80 mg BID until MTD was determined. Patients in the expansion phase received continuous BID treatment with binimetinib beginning on day 1 of cycle 1 at the MTD determined in the dose-escalation phase. Patients were instructed to take BID doses 12±2 h apart with water, irrespective of food.
Dose-limiting toxicities (DLTs) were any adverse event (AE) not clearly attributable to the patient's disease, including haematologic toxicities of grade 4 neutropenia for ⩾5 days, febrile neutropenia, grade 4 thrombocytopenia, and grade 3 thrombocytopenia with bleeding. […]

human cancer cell lines = test system: human cancer cell lines; set-up: method as in Lee et al, 2010; conditions: subset of cells; particularly active with activating BRAF, NRAS, KRAS mutations; ref Lee et al, 2010; cited from earlier work
[3] = BRAF-mutant colorectal cancer cohort (45 mg BID)
[4] = KRAS-mutant colorectal cancer 45 mg dose cohort
[5] = KRAS-mutant colorectal cancer 60 mg dose cohort

Cn1cnc2c(F)c(Nc3ccc(Br)cc3F)c(C(=O)NOCCO)cc21 [binimetinib]
Skin expression of pERK, median (range) percent of baseline (pERK; 30 mg BID (n=4)): 88 (50–100) percent of baseline | Skin expression of pERK, median (range) percent of baseline (pERK; 45 mg BID (n=22)): 66 (38–189) percent of baseline | Skin expression of pERK, median (range) percent of baseline (pERK; 60 mg BID (n=7)): 59 (29–72) percent of baseline | Skin expression of pERK, median (range) percent of baseline (pERK; Total (N=33)): 64 (29–189) percent of baseline | Median OS [1, 3]: 7.1 months | Median PFS [1, 3]: 1.4 months | Median OS [1, 4]: 4.7 months | Median PFS [1, 4]: 1.5 months | Median OS [1, 5]: 9.1 months | Median PFS [1, 5]: 3.5 months | Median OS ([1]; biliary cohort (60 mg BID)): 4.8 months | Median PFS ([1]; biliary cohort (60 mg BID)): 2.1 months | Change in skin pMEK relative to baseline (pMEK): no notable changes | Skin expression of Ki67, median (range) percent of baseline (Ki67; 30 mg BID (n=4)): 44 (25–56) percent of baseline | Skin expression of Ki67, median (range) percent of baseline (Ki67; 45 mg BID (n=22)): 33 (6–300) percent of baseline | Skin expression of Ki67, median (range) percent of baseline (Ki67; 60 mg BID (n=7)): 31 (17–100) percent of baseline | Skin expression of Ki67, median (range) percent of baseline (Ki67; Total (N=33)): 33 (6–300) percent of baseline | PFS vs dacarbazine (NRAS-mutant melanoma): significantly longer PFS | Recommended phase 2 dose ([2]; human, in vivo, 21 day): 45 mg | Maximum tolerated dose (MTD) ([2]; orally twice daily (BID), 21-day cycles, patients with advanced solid tumours): 60 mg | Inhibition of proliferation (human cancer cell lines): potently inhibits
